Source: paper PMC11052077, “Discovery of Dolutegravir Derivative against Liver Cancer via Inducing Autophagy and DNA Damage” (Molecules, 2024)

What was measured:
Assay type in all cases: cell-based, human
[1] = test system: Cyclin D, Cyclin E, β-catenin; assay: Western blot, cell cycle-related proteins; details: 2, 4, 8 μM, 48 h, Huh7, western blot
Procedure: To elucidate the impact of compounds 5e and 5p on the regulation of cell proliferation, we examined the expression levels of key proteins involved in cell growth processes, encompassing autophagy, apoptosis, cell cycle, and DNA damage (Figure 7).
Protein expression levels were measured by western blot. Huh7 cells were cultured in 12-well plates and different concentrations (0, 2, 4, 8 μM) of 5e and 5p were added for 48 h. Proteins were extracted from whole cells using radio-immunoprecipitation assay (RIPA) buffer containing a protease/phosphatase inhibitor cocktail (CST). Then, 10–15% sodium dodecyl sulfate polyacrylamide gel electrophoresis and nitrocellulose membranes (Millipore) were employed to separate and collect proteins. Antibodies used include LC3 (3868s, CST), Caspase3 (9662, CST), cyclin D (2922s, CST), cyclin E (20808s, CST), γH2AX (9718s, CST), β-Catenin (9562s, CST), and β-actin (4967s, CST).

[2] = test system: Huh7 cells; assay: Cell cycle assay, PI staining flow cytometry; details: 8 μM, 48 h
Procedure: To further investigate the effects of compounds 5e and 5p on regulation of the cell cycle, we treated cancer cells with different concentrations of 5e or 5p for 48 h and then analyzed cell cycle distribution using flow cytometry.
Huh7 cells were cultured in 6-well plates with a density of 3 × 10^5 cells/well. Cells were treated with different concentrations (0, 4, and 8 μM for Huh7) of 5e or 5p for 48 h respectively. Then the cell cycle was determined by PI staining using the flow cytometer(Thermo, Beijing, China).

[3] = test system: γ-H2AX in HepG2 cells; assay: γ-H2AX immunofluorescence, HepG2; details: HepG2, 72 h
Procedure: (§1) The phosphorylation of H2AX serves as a highly specific and sensitive molecular marker for DNA damage. Through Western blotting, we have confirmed that compounds 5e and 5p induce DNA damage in Huh7 and HepG2 cells. To further substantiate the inhibitory effect of compounds 5e and 5p on Huh7 cells, immunofluorescence was employed to assess their correlation with γ-H2AX.
The HepG2 cells (1 × 10^6) were plated in laser confocal dishes (Nest, Wuxi, China), before Compound 5e and 5p were treated for 72 h. Then, 4% paraformaldehyde was added to each laser confocal dishes for 20 min, after rinsing with PBS. The Triton X-100 was used to penetrate the cells for 20 min. Before the cells were incubated with p-H2AX (Cell Signaling Technology, Danvers, MA, USA) at 1:800 dilution at 4 °C overnight, goat serum was used to block for 30 min. Subsequently, the HepG2 were rinsed with PBS and incubated with Alexa Fluor 488 (Proteintech, Wuhan, China) at a 1:1000 dilution in the dark at room temperature for 1 h. DAPI was added to each laser to stain the cell nucleus for 5 min. Then, the cells were observed under a laser confocal microscope (Nikon, Tokyo, Japan), after rinsing with PBS.

[4] = test system: γ-H2AX in Huh7 cells; assay: γ-H2AX immunofluorescence / DNA damage staining, Huh7; details: Huh7, 5, 10, 20 μM, 24 h
Procedure: as §1
The Huh7 cells with a density of 5 × 10^3 cells per well were seeded in a 96-well plate for overnight incubation. Then, different concentrations (0, 5 μM, 10 μM, 20 μM) of the compounds 5e and 5p were added to cells for 24 h. A DNA damage detection kit was used to dye the cells, and cells were observed and photographed by a fluorescent microscope. Cell nucleus is stained blue, and DNA damage is shown as green fluorescence.

COc1c2n(cc(C(=O)Nc3cccc(-c4cn(-c5cccc(C(F)(F)F)c5)nn4)c3)c1=O)CC1OCCC(C)N1C2=O (stereo not shown) [Compound 5p]
Cyclin D, Cyclin E or β-catenin expression [1]: no significant differences | effect on S phase of cell cycle [2]: clearly decreased phase of S | γ-H2AX expression by immunofluorescence [3]: increased the expression of γ-H2AX | γ-H2AX expression by immunofluorescence [4]: increased the expression of γ-H2AX
